Assay results taken from US6355799B1, “Substituted benzene compounds, process for their preparation, and herbicidal and defoliant compositions containing them” (ISK Americas Incorporated, priority 1997, dated 2002).

Tests used:
Format in all cases: in vivo
[1] = tested on: upland rice (Oryza sp., var. Tebonnet, RICE); assay: Pre-emerge test, crop safety; details: for phytotoxicity rating RICE (crop damage): pre-emerge, 14 days after application, scale 0-100; for Pre-emerge Herbicidal Activity RICE: crop damage rating 0-100, 14 days after application
Summary of the method: (§1)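 Compounds in acetone were track-sprayed at 15-1000 g ai/ha (187 l/ha) on sandy loam pots: pre-emerge one day after seeding, post-emerge at 2-3 leaf stage with 0.25% v/v non-ionic surfactant. Phytotoxicity was rated 14 days later on a 0 (no damage) to 100 (complete death) scale.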

[2] = tested on: field corn (Zea mays L., var. Dekalb 535, CORN); assay: Pre-emerge test, crop safety; details: for phytotoxicity rating CORN (crop damage): pre-emerge, 14 days after application, scale 0-100; for Pre-emerge Herbicidal Activity CORN: crop damage rating 0-100, 14 days after application
Summary of the method: as §1

[3] = tested on: sicklepod (Cassia obtusifolia, CASOB); assay: Post-emerge test, greenhouse herbicide activity screening; details: post-emerge, 14 days after application, rating scale 0-100
Summary of the method: (§2)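 Sandy loam pots; pre-emerge: sown 1 d pre-spray, surface-watered after, then bottom-watered. Post-emerge: sown 8–21 d before, 2–3 leaf stage, + 0.25% v/v NIS, bottom-watered. Acetone, 187 l/ha track spray, 15–1000 g ai/ha. 0–100 injury score, day 14.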

[4] = tested on: large crabgrass (Digitaria sanguinalis, DIGSA); assay: as above; details: post-emerge, 14 days after application, rating scale 0-100
Summary of the method: as §2

[5] = tested on: lambsquarters (Chenopodium album, CHEAL); assay: as above; details: post-emerge, 14 days after application, rating scale 0-100
Summary of the method: as §2

[6] = tested on: johnsongrass (Sorghum halepense, SORHA); assay: as above; details: post-emerge, 14 days after application, rating scale 0-100
Summary of the method: as §2

[7] = tested on: velvetleaf (Abutilon theophrasti, ABUTH); assay: as above; details: post-emerge, 14 days after application, rating scale 0-100
Summary of the method: as §2

[8] = tested on: green foxtail (Setaria viridis, SETVI); assay: as above; details: post-emerge, 14 days after application, rating scale 0-100
Summary of the method: as §2

[9] = tested on: barnyardgrass (Echinochloa crus-galli, ECHCG); assay: as above; details: post-emerge, 14 days after application, rating scale 0-100
Summary of the method: as §2

[10] = tested on: redroot pigweed (Amaranthus retroflexus, AMARE); assay: as above; details: post-emerge, 14 days after application
Summary of the method: as §2

[11] = tested on: ivyleaf morningglory (Ipomoea hederacea, IPOHE); assay: as above; details: post-emerge, 14 days after application, rating scale 0-100
Summary of the method: as §2

[12] = tested on: upland rice (Oryza sp., var. Tebonnet, RICE); assay: Post-emerge test, crop safety; details: post-emerge, 14 days after application, rating scale 0-100
Summary of the method: (§3)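 Applied at 15–1000 g ai/ha from acetone in 187 l/ha spray volume. Post-emergence applications included 0.25% v/v non-ionic surfactant and reached plants sown 8–21 days before. Pre-emergence applications were incorporated by surface watering. Efficacy or crop damage was rated on a 0–100 scale after 14 days.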

[13] = tested on: field corn (Zea mays L., var. Dekalb 535, CORN); assay: Post-emerge test, crop safety; details: post-emerge, 14 days after application, rating scale 0-100
Summary of the method: as §3

[14] = tested on: redroot pigweed (Amaranthus retroflexus, AMARE); assay: Pre-emerge test, greenhouse herbicide activity screening; details: for phytotoxicity rating AMARE: pre-emerge, 14 days after application, scale 0-100; for Pre-emerge Herbicidal Activity AMARE: phytotoxicity rating 0-100, 14 days after application
Summary of the method: as §1

[15] = tested on: sicklepod (Cassia obtusifolia, CASOB); assay: as above; details: for phytotoxicity rating CASOB: pre-emerge, 14 days after application, scale 0-100; for Pre-emerge Herbicidal Activity CASOB: phytotoxicity rating 0-100, 14 days after application
Summary of the method: as §3

[16] = tested on: large crabgrass (Digitaria sanguinalis, DIGSA); assay: as above; details: for phytotoxicity rating DIGSA: pre-emerge, 14 days after application, scale 0-100; for Pre-emerge Herbicidal Activity DIGSA: phytotoxicity rating 0-100, 14 days after application
Summary of the method: as §3

[17] = tested on: lambsquarters (Chenopodium album, CHEAL); assay: as above; details: for phytotoxicity rating CHEAL: pre-emerge, 14 days after application, scale 0-100; for Pre-emerge Herbicidal Activity CHEAL: phytotoxicity rating 0-100, 14 days after application
Summary of the method: as §3

[18] = tested on: velvetleaf (Abutilon theophrasti, ABUTH); assay: as above; details: for phytotoxicity rating ABUTH: pre-emerge, 14 days after application, scale 0-100; for Pre-emerge Herbicidal Activity ABUTH: phytotoxicity rating 0-100, 14 days after application
Summary of the method: as §3

[19] = tested on: green foxtail (Setaria viridis, SETVI); assay: as above; details: for phytotoxicity rating SETVI: pre-emerge, 14 days after application, scale 0-100; for Pre-emerge Herbicidal Activity SETVI: phytotoxicity rating 0-100, 14 days after application
Summary of the method: as §3

[20] = tested on: barnyardgrass (Echinochloa crus-galli, ECHCG); assay: as above; details: for phytotoxicity rating ECHCG: pre-emerge, 14 days after application, scale 0-100; for Pre-emerge Herbicidal Activity ECHCG: phytotoxicity rating 0-100, 14 days after application
Summary of the method: as §3

[21] = tested on: ivyleaf morningglory (Ipomoea hederacea, IPOHE); assay: as above; details: for phytotoxicity rating IPOHE: pre-emerge, 14 days after application, scale 0-100; for Pre-emerge Herbicidal Activity IPOHE: phytotoxicity rating 0-100, 14 days after application
Summary of the method: as §3

[22] = 250 g ai/ha, rating scale 0-100

COc1ccccc1C=CC(=O)Nc1c(OC)c(Cl)cc(F)c1-n1c(=O)cc(C(F)(F)F)n(C)c1=O [2-127]
90: phytotoxicity rating AMARE ([14]; 63 g ai/ha)
10: phytotoxicity rating RICE (crop damage) ([1]; 250 g ai/ha) | CORN phytotoxicity rating (crop damage) ([13]; 63 g ai/ha)
60: CASOB phytotoxicity rating ([3]; 250 g ai/ha)
15: CORN phytotoxicity rating (crop damage) ([13]; 250 g ai/ha)
0: phytotoxicity rating RICE (crop damage) ([1]; 63 g ai/ha) | phytotoxicity rating CORN (crop damage) ([2]; 63 g ai/ha) | phytotoxicity rating CORN (crop damage) ([2]; 250 g ai/ha) | phytotoxicity rating CASOB ([15]; 63 g ai/ha) | phytotoxicity rating ECHCG ([20]; 63 g ai/ha) | phytotoxicity rating IPOHE ([21]; 63 g ai/ha)
100: CASOB phytotoxicity rating ([3]; 63 g ai/ha) | CHEAL phytotoxicity rating ([5]; 250 g ai/ha) | ABUTH phytotoxicity rating ([7]; 63 g ai/ha) | ABUTH phytotoxicity rating ([7]; 250 g ai/ha) | AMARE phytotoxicity rating ([10]; 63 g ai/ha, rating scale 0-100) | AMARE phytotoxicity rating [10, 22] | IPOHE phytotoxicity rating ([11]; 63 g ai/ha) | phytotoxicity rating AMARE ([14]; 250 g ai/ha) | phytotoxicity rating DIGSA ([16]; 250 g ai/ha) | phytotoxicity rating CHEAL ([17]; 63 g ai/ha) | phytotoxicity rating CHEAL ([17]; 250 g ai/ha) | phytotoxicity rating ABUTH ([18]; 63 g ai/ha) | phytotoxicity rating ABUTH ([18]; 250 g ai/ha)
20: DIGSA phytotoxicity rating ([4]; 63 g ai/ha) | SORHA phytotoxicity rating ([6]; 63 g ai/ha) | SORHA phytotoxicity rating ([6]; 250 g ai/ha) | ECHCG phytotoxicity rating ([9]; 250 g ai/ha) | phytotoxicity rating SETVI ([19]; 63 g ai/ha)
50: phytotoxicity rating IPOHE ([21]; 250 g ai/ha)
30: DIGSA phytotoxicity rating ([4]; 250 g ai/ha) | SETVI phytotoxicity rating ([8]; 63 g ai/ha) | ECHCG phytotoxicity rating ([9]; 63 g ai/ha) | RICE phytotoxicity rating (crop damage) ([12]; 63 g ai/ha) | phytotoxicity rating DIGSA ([16]; 63 g ai/ha)
70: CHEAL phytotoxicity rating ([5]; 63 g ai/ha)
95: IPOHE phytotoxicity rating ([11]; 250 g ai/ha)
35: RICE phytotoxicity rating (crop damage) ([12]; 250 g ai/ha)
80: phytotoxicity rating SETVI ([19]; 250 g ai/ha)
40: SETVI phytotoxicity rating ([8]; 250 g ai/ha) | phytotoxicity rating CASOB ([15]; 250 g ai/ha) | phytotoxicity rating ECHCG ([20]; 250 g ai/ha)

COc1c(Cl)cc(F)c(-n2c(=O)cc(C(F)(F)F)n(C)c2=O)c1NC(=O)OCc1ccccn1 [4-36]
30: phytotoxicity rating DIGSA ([4]; 63 g ai/ha) | Pre-emerge Herbicidal Activity DIGSA ([16]; 63 g ai/ha) | Pre-emerge Herbicidal Activity ECHCG ([20]; 63 g ai/ha)
90: Pre-emerge Herbicidal Activity CORN ([2]; 63 g ai/ha) | phytotoxicity rating SORHA ([6]; 250 g ai/ha) | phytotoxicity rating SETVI ([8]; 63 g ai/ha) | phytotoxicity rating SETVI ([8]; 250 g ai/ha) | Pre-emerge Herbicidal Activity AMARE ([14]; 63 g ai/ha) | Pre-emerge Herbicidal Activity ECHCG ([20]; 250 g ai/ha)
20: phytotoxicity rating ECHCG ([9]; 63 g ai/ha)
10: phytotoxicity rating SORHA ([6]; 63 g ai/ha)
70: phytotoxicity rating DIGSA ([4]; 250 g ai/ha)
60: Pre-emerge Herbicidal Activity RICE ([1]; 63 g ai/ha) | phytotoxicity rating ECHCG ([9]; 250 g ai/ha) | phytotoxicity rating RICE (crop damage) ([12]; 63 g ai/ha) | Pre-emerge Herbicidal Activity SETVI ([19]; 63 g ai/ha)
50: phytotoxicity rating CORN (crop damage) ([13]; 63 g ai/ha)
100: Pre-emerge Herbicidal Activity CORN ([2]; 250 g ai/ha) | phytotoxicity rating CASOB ([3]; 63 g ai/ha) | phytotoxicity rating CASOB ([3]; 250 g ai/ha) | phytotoxicity rating CHEAL ([5]; 63 g ai/ha) | phytotoxicity rating CHEAL ([5]; 250 g ai/ha) | phytotoxicity rating ABUTH ([7]; 63 g ai/ha) | phytotoxicity rating ABUTH ([7]; 250 g ai/ha) | phytotoxicity rating AMARE ([10]; 63 g ai/ha, rating scale 0-100 (0 no damage, 100 complete death)) | phytotoxicity rating AMARE [10, 22] | phytotoxicity rating IPOHE ([11]; 63 g ai/ha) | phytotoxicity rating IPOHE ([11]; 250 g ai/ha) | phytotoxicity rating RICE (crop damage) ([12]; 250 g ai/ha) | phytotoxicity rating CORN (crop damage) ([13]; 250 g ai/ha) | Pre-emerge Herbicidal Activity AMARE ([14]; 250 g ai/ha) | Pre-emerge Herbicidal Activity CASOB ([15]; 250 g ai/ha) | Pre-emerge Herbicidal Activity DIGSA ([16]; 250 g ai/ha) | Pre-emerge Herbicidal Activity CHEAL ([17]; 63 g ai/ha) | Pre-emerge Herbicidal Activity CHEAL ([17]; 250 g ai/ha) | Pre-emerge Herbicidal Activity ABUTH ([18]; 63 g ai/ha) | Pre-emerge Herbicidal Activity ABUTH ([18]; 250 g ai/ha) | Pre-emerge Herbicidal Activity SETVI ([19]; 250 g ai/ha) | Pre-emerge Herbicidal Activity IPOHE ([21]; 63 g ai/ha) | Pre-emerge Herbicidal Activity IPOHE ([21]; 250 g ai/ha)
80: Pre-emerge Herbicidal Activity CASOB ([15]; 63 g ai/ha)
95: Pre-emerge Herbicidal Activity RICE ([1]; 250 g ai/ha)
